Data published in patent US20250353842A1, “BICYCLIC AMINE CDK12 INHIBITORS” (Incyte Corporation, priority 2022, published 2025).

Target: CDK12 complexed with Cyclin K (Homo sapiens (Human), UniProt Q9NYV4)
Assay: CDK enzymatic assay (HTRF, LANCE Ultra kinase assay)
Type: biochemical
Settings: 60 minutes pre-incubation, 1 mM ATP
Protocol: The following activity of the CDK enzymes in complex with their respective cyclins we assayed: CDK1 complexed with Cyclin B1; CDK2 complexed with Cyclin E1; CDK4 complexed with Cyclin D1; CDK6 complexed with Cyclin D1; CDK6 complexed with Cyclin D3; CDK9 complexed with Cyclin T1; CDK7 complexed with Cyclin H/MAT1; CDK2 complexed with Cyclin A2; CDK5 complexed with p35; CDK12 complexed with Cyclin K; CDK13 complexed with Cyclin K. These in vitro enzyme activity are assayed using homogeneous time-resolved energy transfer (HTRF), which measures phosphorylation of a peptide substrate. The LANCE® Ultra kinase assay (PerkinElmer) uses a ULight™-labeled EIF4E-binding protein 1 (THR37/46) peptide (DYSTTPGGTLFSTTPGTRI) (SEQ ID NO: 1) substrate and a Europium-labeled anti-phospho-4E-BP1 antibody (CDK2, CDK1, CDK4, CDK6, CDK9, CDK12, CDK13) or ULight™-labeled Myelin Basic Protein peptide (VTPRTPPP) (SEQ ID NO: 2) substrate and a Europium-labeled anti-phospho-MBP antibody (CDK7). Each CDK enzyme activity assays utilized human CDK co-expressed as N-terminal GST-tagged protein with its full length cyclin partner using a baculovirus expression system.
Enzyme was pre-incubated with compounds for 30 minutes (CDK1,2,4,6,9) or 60 minutes (CDK7, CDK12, CDK13) prior to addition of ATP and Ulight-peptide (1 mM and 50 nM final, respectively), in assay buffer containing 50 mM HEPES pH 7.5, 1 mM EGTA, 10 mM MgCl2, 2 mM DTT, 0.05 mg/mL BSA, and 0.01% Tween 20.
The reaction was then incubated for 60-90 minutes at room temperature. The reactions were stopped by the addition of EDTA and Europium labeled antibody, for a final concentration of 15 mM and 1.0-1.5 nM, respectively. HTRF signals were read after 15-120 minutes. A ratio of fluorescence transferred to the labeled substrate (665 nm) relative to fluorescence of the Europium donor (620 nm) represents the extent of phosphorylation. Ratios for treated wells were normalized to DMSO only (100% activity) and no enzyme (0% activity) controls. Normalized data was analyzed using a three or four parameter dose response curve to determine IC50 for each compound and are shown in Table A. Control reference inhibitors were included on each plate.

Sequence of CDK12 complexed with Cyclin K (Q9NYV4 whole entry): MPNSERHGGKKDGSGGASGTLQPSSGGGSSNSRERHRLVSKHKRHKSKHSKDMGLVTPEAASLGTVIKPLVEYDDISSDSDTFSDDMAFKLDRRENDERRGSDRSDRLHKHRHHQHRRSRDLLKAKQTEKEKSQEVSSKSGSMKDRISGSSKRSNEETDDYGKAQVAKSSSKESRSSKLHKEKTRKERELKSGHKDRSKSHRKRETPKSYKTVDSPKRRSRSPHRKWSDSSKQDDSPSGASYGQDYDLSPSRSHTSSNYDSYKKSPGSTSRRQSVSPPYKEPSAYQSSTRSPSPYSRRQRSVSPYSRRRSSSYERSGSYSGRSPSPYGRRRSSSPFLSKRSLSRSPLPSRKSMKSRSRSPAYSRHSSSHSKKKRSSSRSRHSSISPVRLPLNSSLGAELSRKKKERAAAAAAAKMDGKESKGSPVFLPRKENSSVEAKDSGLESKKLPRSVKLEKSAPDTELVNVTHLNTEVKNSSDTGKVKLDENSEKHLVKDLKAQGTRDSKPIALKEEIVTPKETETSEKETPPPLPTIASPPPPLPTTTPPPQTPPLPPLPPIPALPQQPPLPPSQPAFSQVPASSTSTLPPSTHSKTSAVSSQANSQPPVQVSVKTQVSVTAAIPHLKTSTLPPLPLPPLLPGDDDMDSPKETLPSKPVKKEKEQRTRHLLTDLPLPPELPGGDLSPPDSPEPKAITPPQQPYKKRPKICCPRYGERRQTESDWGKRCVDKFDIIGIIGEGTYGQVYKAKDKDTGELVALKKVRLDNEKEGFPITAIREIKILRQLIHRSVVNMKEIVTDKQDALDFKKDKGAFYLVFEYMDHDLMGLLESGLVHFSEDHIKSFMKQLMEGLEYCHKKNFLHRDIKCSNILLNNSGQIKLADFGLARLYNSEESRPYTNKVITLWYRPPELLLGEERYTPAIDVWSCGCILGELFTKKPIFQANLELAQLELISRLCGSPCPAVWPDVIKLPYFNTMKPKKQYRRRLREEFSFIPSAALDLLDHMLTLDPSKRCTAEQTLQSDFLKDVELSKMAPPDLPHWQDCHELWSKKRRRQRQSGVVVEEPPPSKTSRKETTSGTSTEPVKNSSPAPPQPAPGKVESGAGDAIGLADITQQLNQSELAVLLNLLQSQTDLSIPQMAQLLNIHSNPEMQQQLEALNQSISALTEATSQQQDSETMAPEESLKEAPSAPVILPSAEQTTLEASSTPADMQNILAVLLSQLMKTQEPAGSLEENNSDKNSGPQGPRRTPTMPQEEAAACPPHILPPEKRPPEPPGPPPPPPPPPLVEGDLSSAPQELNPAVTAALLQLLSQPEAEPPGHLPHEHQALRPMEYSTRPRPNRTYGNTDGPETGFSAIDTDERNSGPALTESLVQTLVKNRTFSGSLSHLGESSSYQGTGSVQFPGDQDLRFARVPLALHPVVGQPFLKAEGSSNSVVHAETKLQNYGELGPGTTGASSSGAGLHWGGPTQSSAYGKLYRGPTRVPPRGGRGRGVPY
Sequence of CDK12 complexed with Cyclin K (O75909 whole entry partner): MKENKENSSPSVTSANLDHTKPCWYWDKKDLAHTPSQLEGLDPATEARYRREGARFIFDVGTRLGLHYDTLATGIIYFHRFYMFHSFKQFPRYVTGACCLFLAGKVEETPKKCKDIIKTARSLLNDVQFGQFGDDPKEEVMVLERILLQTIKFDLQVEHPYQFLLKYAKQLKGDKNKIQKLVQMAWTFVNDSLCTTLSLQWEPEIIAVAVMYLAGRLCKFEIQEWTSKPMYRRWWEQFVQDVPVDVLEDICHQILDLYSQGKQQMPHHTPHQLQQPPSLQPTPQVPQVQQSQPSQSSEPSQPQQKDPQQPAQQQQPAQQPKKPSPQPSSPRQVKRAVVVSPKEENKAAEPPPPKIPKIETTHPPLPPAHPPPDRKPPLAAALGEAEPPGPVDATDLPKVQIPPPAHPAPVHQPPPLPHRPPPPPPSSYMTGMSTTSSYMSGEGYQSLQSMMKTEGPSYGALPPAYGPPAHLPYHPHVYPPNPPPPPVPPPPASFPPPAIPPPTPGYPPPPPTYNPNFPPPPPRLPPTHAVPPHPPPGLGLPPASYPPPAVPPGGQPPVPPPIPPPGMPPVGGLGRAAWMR

**Q.** With `N#Cc1cnc(N[C@@H]2CCC[C@H](n3cnc4cncc(Br)c43)C2)nc1-c1cnn(CC(F)F)c1` [Example 39, 2-(((1R,3S)-3-(7-Bromo-1H-imidazo[4,5-c]pyridin-1-yl)cyclohexyl)amino)-4-(1-(2,2-difluoroethyl)-1H-pyrazol-4-yl)pyrimidine-5-carbonitrile] as the compound, how does the IC50 read?
**A.** < 50 nM

**Q.** With `N#Cc1cnc(N[C@@H]2CCC[C@H](n3cnc4cc(F)cc(Br)c43)C2)nc1-c1cnn(CC(F)F)c1` [Example 40, 2-(((1R,3S)-3-(7-Bromo-5-fluoro-1H-benzo[d]imidazol-1-yl)cyclohexyl)amino)-4-(1-(2,2-difluoroethyl)-1H-pyrazol-4-yl)pyrimidine-5-carbonitrile] as the compound, how does the IC50 read?
**A.** < 50 nM

**Q.** How did the IC50 turn out when `N#Cc1cnc(N[C@@H]2CCC[C@H](n3cnc4cccc(Br)c43)C2)nc1-c1cnn(CC(F)F)c1` [Example 41, 2-(((1R,3S)-3-(7-Bromo-1H-benzo[d]imidazol-1-yl)cyclohexyl)amino)-4-(1-(2,2-difluoroethyl)-1H-pyrazol-4-yl)pyrimidine-5-carbonitrile] was run?
**A.** < 50 nM

**Q.** `N#Cc1cnc(N[C@@H]2CCC[C@H](n3cnc4cnc(Cl)c(Br)c43)C2)nc1-c1cnn(CC(F)F)c1` [Example 42, 2-(((1R,3S)-3-(7-Bromo-6-chloro-1H-imidazo[4,5-c]pyridin-1-yl)cyclohexyl)amino)-4-(1-(2,2-difluoroethyl)-1H-pyrazol-4-yl)pyrimidine-5-carbonitrile] was tested. Which IC50 did it give?
**A.** < 50 nM

**Q.** `N#Cc1ccc2ncn([C@H]3CCC[C@@H](Nc4ncc(C#N)c(-c5cnn(CC(F)F)c5)n4)C3)c2c1` [Example 43, 1-((1S,3R)-3-((5-Cyano-4-(1-(2,2-difluoroethyl)-1H-pyrazol-4-yl)pyrimidin-2-yl)amino)cyclohexyl)-1H-benzo[d]imidazole-6-carbonitrile] was tested. Which IC50 did it give?
**A.** < 50 nM

**Q.** `N#Cc1cnc(N[C@@H]2CCC[C@H](n3cnc4cncc(Cl)c43)C2)nc1-c1cnn(CC(F)F)c1` [Example 45, 2-(((1R,3S)-3-(7-Chloro-1H-imidazo[4,5-c]pyridin-1-yl)cyclohexyl)amino)-4-(1-(2,2-difluoroethyl)-1H-pyrazol-4-yl)pyrimidine-5-carbonitrile] was tested. Which IC50 did it give?
**A.** < 50 nM

**Q.** Which IC50 does the source give for `N#Cc1cc2c(cn1)ncn2[C@H]1CCC[C@@H](Nc2ncc(C#N)c(-c3cnn(CC(F)F)c3)n2)C1` [Example 46, 1-((1S,3R)-3-((5-Cyano-4-(1-(2,2-difluoroethyl)-1H-pyrazol-4-yl)pyrimidin-2-yl)amino)cyclohexyl)-1H-imidazo[4,5-c]pyridine-6-carbonitrile] here?
**A.** < 50 nM

**Q.** `N#Cc1ccc2ncn([C@H]3CCC[C@@H](Nc4ncc(C#N)c(-c5cnn(CC(F)F)c5)n4)C3)c2n1` [Example 47, 3-((1S,3R)-3-((5-Cyano-4-(1-(2,2-difluoroethyl)-1H-pyrazol-4-yl)pyrimidin-2-yl)amino)cyclohexyl)-3H-imidazo[4,5-b]pyridine-5-carbonitrile] was tested. Which IC50 did it give?
**A.** < 50 nM

**Q.** `Cc1ncc(C#N)c2c1ncn2[C@H]1CCC[C@@H](Nc2ncc(C#N)c(-c3cnn(CC(F)F)c3)n2)C1` [Example 48, 1-((1S,3R)-3-((5-Cyano-4-(1-(2,2-difluoroethyl)-1H-pyrazol-4-yl)pyrimidin-2-yl)amino)cyclohexyl)-4-methyl-1H-imidazo[4,5-c]pyridine-7-carbonitrile] was tested. Which IC50 did it give?
**A.** < 50 nM

**Q.** With `N#Cc1cnc(N[C@@H]2CCC[C@H](n3cnc4cc(F)cc(C#N)c43)C2)nc1-c1cnn(CC(F)F)c1` [Example 49, 1-((1S,3R)-3-((5-Cyano-4-(1-(2,2-difluoroethyl)-1H-pyrazol-4-yl)pyrimidin-2-yl)amino)cyclohexyl)-5-fluoro-1H-benzo[d]imidazole-7-carbonitrile] as the compound, how does the IC50 read?
**A.** < 50 nM

**Q.** `N#Cc1cc(C#N)c2c(c1)ncn2[C@H]1CCC[C@@H](Nc2ncc(C#N)c(-c3cnn(CC(F)F)c3)n2)C1` [Example 50, 1-((1S,3R)-3-((5-Cyano-4-(1-(2,2-difluoroethyl)-1H-pyrazol-4-yl)pyrimidin-2-yl)amino)cyclohexyl)-1H-benzo[d]imidazole-5,7-dicarbonitrile] was tested. Which IC50 did it give?
**A.** < 50 nM

**Q.** Which IC50 does the source give for `N#Cc1cc(C(F)(F)F)cc2ncn([C@H]3CCC[C@@H](Nc4ncc(C(F)(F)F)c(-c5cnn(CC(F)F)c5)n4)C3)c12` [Example 51, 1-((1S,3R)-3-((4-(1-(2,2-Difluoroethyl)-1H-pyrazol-4-yl)-5-(trifluoromethyl)pyrimidin-2-yl)amino)cyclohexyl)-5-(trifluoromethyl)-1H-benzo[d]imidazole-7-carbonitrile] here?
**A.** 50 to 500 nM

**Q.** With `N#Cc1cncc2ncn([C@H]3CCC[C@@H](Nc4ncc(C(F)(F)F)c(-c5cnn(CC(F)F)c5)n4)C3)c12` [Example 52, 1-((1S,3R)-3-((4-(1-(2,2-Difluoroethyl)-1H-pyrazol-4-yl)-5-(trifluoromethyl)pyrimidin-2-yl)amino)cyclohexyl)-1H-imidazo[4,5-c]pyridine-7-carbonitrile] as the compound, how does the IC50 read?
**A.** < 50 nM

**Q.** For `N#Cc1cc2ncn([C@H]3CCC[C@@H](Nc4ncc(C#N)c(-c5cnn(CC(F)F)c5)n4)C3)c2[n+]([O-])c1` [Example 53, 6-Cyano-3-((1S,3R)-3-((5-cyano-4-(1-(2,2-difluoroethyl)-1H-pyrazol-4-yl)pyrimidin-2-yl)amino)cyclohexyl)-3H-imidazo[4,5-b]pyridine 4-oxide], which IC50 is on record?
**A.** < 50 nM

**Q.** `Cc1cc(F)cc2ncn([C@H]3CCC[C@@H](Nc4ncc(C#N)c(-c5cnn(CC(F)F)c5)n4)C3)c12` [Example 54, 4-(1-(2,2-Difluoroethyl)-1H-pyrazol-4-yl)-2-(((1R,3S)-3-(5-fluoro-7-methyl-1H-benzo[d]imidazol-1-yl)cyclohexyl)amino)pyrimidine-5-carbonitrile] was tested. Which IC50 did it give?
**A.** < 50 nM

**Q.** `Cc1cc(C#N)cc2ncn([C@H]3CCC[C@@H](Nc4ncc(C#N)c(-c5cnn(CC(F)F)c5)n4)C3)c12` [Example 55, 1-((1S,3R)-3-((5-Cyano-4-(1-(2,2-difluoroethyl)-1H-pyrazol-4-yl)pyrimidin-2-yl)amino)cyclohexyl)-7-methyl-1H-benzo[d]imidazole-5-carbonitrile] was tested. Which IC50 did it give?
**A.** < 50 nM

**Q.** `Cn1cc(-c2cnc(N[C@@H]3CCC[C@H](n4cnc5cc(C#N)cnc54)C3)nc2-c2cnn(CC(F)F)c2)cn1` [Example 56, 3-((1S,3R)-3-((4-(1-(2,2-Difluoroethyl)-1H-pyrazol-4-yl)-5-(1-methyl-1H-pyrazol-4-yl)pyrimidin-2-yl)amino)cyclohexyl)-3H-imidazo[4,5-b]pyridine-6-caronitrile] was tested. Which IC50 did it give?
**A.** > 500 nM

**Q.** `N#Cc1cnc2c(c1)ncn2[C@H]1CCC[C@@H](Nc2ncc(-c3cn[nH]c3)c(-c3cnn(CC(F)F)c3)n2)C1` [Example 57, 3-((1S,3R)-3-((4-(1-(2,2-Difluoroethyl)-1H-pyrazol-4-yl)-5-(1H-pyrazol-4-yl)pyrimidin-2-yl)amino)cyclohexyl)-3H-imidazo[4,5-b]pyridine-6-carbonitrile] was tested. Which IC50 did it give?
**A.** 50 to 500 nM

**Q.** With `CC(C)(O)Cn1cc(-c2nc(N[C@@H]3CCC[C@H](n4cnc5cc(C#N)cnc54)C3)ncc2C#N)cn1` [Example 58, 3-((1S,3R)-3-((5-Cyano-4-(1-(2-hydroxy-2-methylpropyl)-1H-pyrazol-4-yl)pyrimidin-2-yl)amino)cyclohexyl)-3H-imidazo[4,5-b]pyridine-6-carbonitrile] as the compound, how does the IC50 read?
**A.** < 50 nM

**Q.** How did the IC50 turn out when `N#Cc1cnc2c(c1)ncn2[C@H]1CCC[C@@H](Nc2ncc(C#N)c(-c3cnn(C4CNC4)c3)n2)C1` [Example 59, 3-((1S,3R)-3-((4-(1-(Azetidin-3-yl)-1H-pyrazol-4-yl)-5-cyanopyrimidin-2-yl)amino)cyclohexyl)-3H-imidazo[4,5-b]pyridine-6-carbonitrile] was run?
**A.** < 50 nM
